Patent publication US9873702B2, “Heterocyclic compounds as biogenic amine transport modulators” (Southern Research Institute, priority 2014, dated 2018)

Tests used:
[1] = target: dopamine transporter (DAT) (Rattus norvegicus, UniProt P23977); experiment: Dopamine reuptake ([^3H]dopamine uptake) inhibition in rat brain synaptosomes; conditions: for IC50: DA Uptake EC50 (nM ± SD), rat caudate synaptosomes, 5 nM [^3H]dopamine, 15 min, 25° C., three experiments pooled; for Emax: read-out: DA Uptake Emax (% I ± SD)
Chain of dopamine transporter (DAT) (P23977 whole entry): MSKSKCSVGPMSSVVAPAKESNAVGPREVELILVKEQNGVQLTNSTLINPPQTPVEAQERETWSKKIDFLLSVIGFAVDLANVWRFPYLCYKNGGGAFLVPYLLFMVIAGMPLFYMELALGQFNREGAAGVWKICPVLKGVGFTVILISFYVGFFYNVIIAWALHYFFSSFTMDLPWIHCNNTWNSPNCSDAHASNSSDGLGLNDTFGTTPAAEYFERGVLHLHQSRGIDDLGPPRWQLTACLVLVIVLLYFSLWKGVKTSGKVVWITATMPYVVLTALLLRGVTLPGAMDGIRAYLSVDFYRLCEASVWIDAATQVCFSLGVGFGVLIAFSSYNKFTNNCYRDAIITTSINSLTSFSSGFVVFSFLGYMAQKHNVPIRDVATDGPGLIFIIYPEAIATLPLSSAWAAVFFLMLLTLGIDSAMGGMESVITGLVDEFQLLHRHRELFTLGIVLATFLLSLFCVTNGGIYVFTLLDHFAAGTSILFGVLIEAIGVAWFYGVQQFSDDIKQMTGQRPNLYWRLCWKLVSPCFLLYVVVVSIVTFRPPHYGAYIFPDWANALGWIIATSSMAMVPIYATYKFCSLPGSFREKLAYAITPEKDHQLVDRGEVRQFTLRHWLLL

SMILES	IC50 [1]	Emax [1]	melting point
c1ccc(C(CNc2nc(-c3ccsc3)nc3ccccc23)c2ccccc2)cc1 [compound 10, N-(2,2-Diphenylethyl)-2-(thiophen-3-yl)quinazolin-4-amine]	250 nM	< 100%	152 to 155 °C
c1ccc(C(CNc2nc(-n3ccnc3)nc3ccccc23)c2ccccc2)cc1 [compound 48, N-(2,2-Diphenylethyl)-2-(1H-Imidazol-1-yl)Quinazolin-4-Amine]	38 ± 5 nM	73 ± 2%	231 °C
CCN(CC)C(=O)[C@]1(c2ccccc2)C[C@@H]1CNc1nc(-c2ccc3nccn3c2)nc2ccccc12 [compound 170, (1R,2S)—N,N-Diethyl-2-(((2-(Imidazo[1,2-A]Pyridin-6-yl)Quinazolin-4-yl)Amino)Methyl)-1-Phenylcyclopropanecarboxamide]	78 ± 14 nM	72 ± 2%	221 to 223 °C
Cn1ncc2c(-c3nc(NCC(c4ccccc4)c4ccccc4)c4ccccc4n3)cccc21 [compound 65, N-(2,2-Diphenylethyl)-2-(1-Methyl-1H-Indazol-4-yl)Quinazolin-4-Amine]	155 ± 92 nM	50 ± 6%	201 °C
c1ccc2c(NCC(c3ccncc3)c3ccncc3)nc(N3CCc4[nH]ccc4C3)nc2c1 [compound 174, N-(2,2-Di(pyridin-4-yl)Ethyl)-2-(6,7-Dihydro-1H-Pyrrolo[3,2-C]Pyridin-5(4H)-yl)Quinazolin-4-Amine]	31 ± 10 nM	88 ± 4%	224 to 226 °C
CN(C)Cc1cnc2ccc(-c3nc(NCC(c4ccccc4)c4ccccc4)c4ccccc4n3)cn12 [compound 112, 2-(3-((Dimethylamino)methyl)Imidazo[1,2-A]pyridin-6-yl)-N-(2,2-Diphenylethyl)Quinazolin-4-Amine]			240 °C
c1ccc(C(CNc2nc(-c3ccc4cnccc4c3)nc3ccccc23)c2ccccc2)cc1 [compound 133, N-(2,2-Diphenylethyl)-2-(Isoquinolin-6-yl)Quinazolin-4-Amine]	194 ± 30 nM	70 ± 2%	242 to 244 °C
c1ccc(C(CNc2nc(-c3cn[nH]c3)nc3ccccc23)c2ccccc2)cc1 [compound 75, N-(2,2-Diphenylethyl)-2-(1H-Pyrazol-4-yl)Quinazolin-4-Amine]	62 nM	100%	233 °C
CS(=O)(=O)Nc1ncc(-c2nc(NCC(c3ccccc3)c3ccccc3)c3ccccc3n2)cn1 [compound 139, N-(5-(4-((2,2-Diphenylethyl)Amino)Quinazolin-2-yl)Pyrimidin-2-yl)Methanesulfonamide]	205 ± 32 nM	67 ± 2%	214 °C
Nc1ncc(-c2nc(NCC(c3ccccc3)c3ncccn3)c3ccccc3n2)cn1 (stereo not shown) [compound 104, 2-(2-Aminopyrimidin-5-yl)-N-(2Phenyl-2-(Pyrimidin-2-yl)Ethyl)Quinazolin-4-Amine]			211 °C
c1ccc(C(CNc2nc(-c3ccc4scnc4c3)nc3ccccc23)c2ccccc2)cc1 [compound 145, 2-(Benzo[D]Thiazol-5-yl)-N-(2,2-Diphenylethyl)Quinazolin-4-amine]	533 ± 89 nM	67 ± 2%	224 to 226 °C
c1ccc(C(CNc2nc(-n3cnc4cncnc43)nc3ccccc23)c2ccccc2)cc1 [compound 90, N-(2,2-Diphenylethyl)-2-(9H-Purin-9-yl)Quinazolin-4-Amine]	94 ± 10 nM	75 ± 2%	264 °C
c1ccc(CC(CNc2nc(-c3cnc4nccn4c3)nc3ccccc23)c2ccccc2)cc1 (stereo not shown) [compound 142, N-(2,3-Diphenylpropyl)-2-(Imidazo[1,2-A]Pyrimidin-6-yl)Quinazolin-4-Amine]	15 ± 3 nM	73 ± 2%	189 to 191 °C
c1ccc(C(CNc2nc(-n3cncn3)nc3ccccc23)c2ccccc2)cc1 [compound 52, N-(2,2-Diphenylethyl)-2-(1H-1,2,4-Triazol-1-yl)Quinazolin-4-Amine]	680 nM	100%	216 °C
Cc1cc2nccn2cc1-c1nc(NC[C@H](c2ccccc2)n2cccc2)c2ccccc2n1 [compound 162, (S)-2-(7-Methylimidazo[1,2-A]Pyridin-6-yl)-N-(2-Phenyl-2-(1H-Pyrrol-1-yl)Ethyl)Quinazolin-4-Amine]	2.2 ± 0.4 nM	62 ± 2%	196 to 198 °C
c1ccc(C(CNc2nc(-c3ccc4nccn4c3)nc3ccccc23)c2ccc[nH]2)nc1 (stereo not shown) [compound 159, 2-(Imidazo[1,2-A]pyridin-6-yl)-N-(2-(Pyridin-2-yl)-2-(1H-Pyrrol-2-yl)Ethyl)Quinazolin-4-Amine]			235 to 237 °C
c1ccc(C(CCNc2nc(N3CCCCC3)nc3ccccc23)c2ccccc2)cc1 [compound 9, N-(3,3-Diphenylpropyl)-2-(piperidin-1-yl)quinazolin-4-amine]	140 nM	100%	160 to 164 °C
c1ccc(C(c2ccccc2)N2CC(Nc3nc(-c4ccc5nccn5c4)nc4ccccc34)C2)cc1 [compound 148, N-(1-Benzhydrylazetidin-3-yl)-2-(Imidazo[1,2-A]Pyridin-6-yl)Quinazolin-4-Amine]	91 ± 21 nM	81 ± 3%	67 to 69 °C

SMILES	IC50 [1]	Emax [1]	melting point
Nc1ncc(-c2nc(NCC(c3ccccc3)c3ccncc3)c3ccccc3n2)cn1 (stereo not shown) [compound 107, 2-(2-Aminopyrimidin-5-yl)-N-(2-Phenyl-2-(Pyridin-4-yl)Ethyl)Quinazolin-4-Amine]	197 ± 40 nM	81 ± 3%	219 °C
c1ccc(C(CNc2nc(-n3cccn3)nc3ccccc23)c2ccccc2)cc1 [compound 51, N-(2,2-Diphenylethyl)-2-(1H-Pyrazol-1-yl)Quinazolin-4-Amine]	510 nM	< 100%	191 °C
c1ccc(C(CNc2nc(-c3ccncc3)nc3ccccc23)c2ccccc2)cc1 [compound 39, N-(2,2-Diphenylethyl)-2-(Pyridin-4-yl)Quinazolin-4-Amine]	47 ± 6 nM	78 ± 2%	242 °C
COc1cc2nc(-c3cccs3)nc(NCC(c3ccccc3)c3ccccc3)c2cc1OC [compound 26, N-(2,2-Diphenylethyl)-6,7-Dimethoxy-2-(Thiophen-2-yl)Quinazolin-4-Amine]	560 nM	100%	94 °C
c1ccc(C(Nc2nc(-c3cc4ccccc4s3)nc3ccccc23)c2ccccc2)cc1 [compound 8, N-Benzhydryl-2-(benzo[b]thiophen-2-yl)quinazolin-4-amine]			180 to 182 °C
c1ccc(C(CNc2nc(-c3ccc4nccn4c3)nc3ccccc23)N2CCOCC2)cc1 (stereo not shown) [compound 122, 2-(Imidazo[1,2-A]Pyridin-6-yl)-N-(2-Morpholino-2-Phenylethyl)Quinazolin-4-Amine]			> 250 °C
O=S(=O)(c1ccccc1)n1ccc2cc(-c3nc(NCC(c4ccccc4)c4ccccc4)c4ccccc4n3)ccc21 [compound 36, N-(2,2-Diphenylethyl)-2-(1-(Phenylsulfonyl)-1H-Indol-5-yl)Quinazolin-4-Amine]			203 °C
c1ccc(C(CCNc2nc(-c3cc4ccccc4s3)nc3ccccc23)c2ccccc2)cc1 [compound 19, N-(3,3-Diphenylpropyl)-2-(Benzo [B]Thiophen-2-yl)Quinazolin-4-Amine]			201 to 203 °C
c1ccc(C(CNc2nc(-c3cccc4cc[nH]c34)nc3ccccc23)c2ccccc2)cc1 [compound 33, N-(2,2-Diphenylethyl)-2-(1H-Indol-7-yl)Quinazolin-4-Amine]			67 °C
CN1CCN(C(CNc2nc(-c3ccc4nccn4c3)nc3ccccc23)c2ccccc2)CC1 (stereo not shown) [compound 126, 2-(Imidazo[1,2-A]Pyridin-6-yl)-N-(2-(4-Methylpiperazin-1-yl)-2-Phenylethyl)Quinazolin-4-Amine]			225 to 227 °C
CC(C)(C)OC(=O)N1CCc2cc(-c3nc(NCC(c4ccccc4)c4ccccc4)c4ccccc4n3)ccc21 [compound 74, Tert-Butyl 5-(4-((2,2-Diphenylethyl)Amino)Quinazolin-2-yl)Indoline-1-Carboxylate]			127 °C
O=C(N[C@H](CNc1nc(-c2ccc3nccn3c2)nc2ccccc12)c1ccccc1)c1ccccc1 [compound 150, (S)—N-(2-((2-(Imidazo[1,2-A]Pyridin-6-yl)Quinazolin-4-yl)Amino)-1-Phenylethyl)Benzamide]			97 to 99 °C
c1ccc(C(CNc2nc(-c3ccc4nnnn4c3)nc3ccccc23)c2ccccc2)cc1 [compound 108, N-(2,2-Diphenylethyl)-2-(Tetrazolo[1,5-A]Pyridin-6-yl)Quinazolin-4-Amine]	229 ± 54 nM	47 ± 2%	
c1ccc(C(CNc2nc(-c3cnc4nccn4c3)nc3ccccc23)N2CCCCC2)cc1 (stereo not shown) [compound 120, 2-(Imidazo[1,2-A]Pyrimidin-6-yl)-N-(2-Phenyl-2-(Piperidin-1-yl)Ethyl)Quinazolin-4-Amine]	89 ± 27 nM	81 ± 4%	
Clc1cccc(C(CNc2nc(-c3cccnc3)nc3ccccc23)c2ccccc2)n1 (stereo not shown) [compound 53, N-(2-(6-Chloropyridin-2-yl)-2-Phenylethyl)-2-(Pyridin-3-yl)Quinazolin-4-Amine]			83 °C
c1ccc(C(CNc2nc(-c3ccc4c(c3)NCCC4)nc3ccccc23)c2ccccc2)cc1 [compound 83, N-(2,2-Diphenylethyl)-2-(1,2,3,4-Tetrahydroquinolin-7-yl)Quinazolin-4-Amine]	132 ± 43 nM	69 ± 4%	
CC(C)(C)OC(=O)n1cc(-c2nc(NCC(c3ccccc3)c3ccccc3)c3ccccc3n2)c2ccccc21 [compound 72, Tert-Butyl 3-(4-((2,2-Diphenylethyl)Amino)Quinazolin-2-yl)-1H-Indole-1-Carboxylate]			90 °C
